Some test systems named below: RXF 393; K562; SK-MEL-2; SF-295; OVCAR-8; SNB-19; UO-31; HCT-15; LOX IMVI; U-251; OVCAR-3; SK-MEL-28; SR; A549; MOLT-4; SF-268; IGROV-1; HL-60; CCRF-CEM; UACC-257.
Holding throughout (assay): DTP human tumour cell line panel, 48 h

Usually GI50 stands for the concentration giving 50% growth inhibition.

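Results reflect a 48-hour exposure of cells in 96-well plates to compound at five concentrations. GI50 = concentration required for 50% inhibition of growth.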 The source made the active and inactive calls. No stated cut-off is given here; in the data, active = GI50 up to about 1.1 µM and inactive = higher.

With `Clc1ccccc1NN(Cc1ccncc1)c1ccccc1Cl`, the GI50 with RXF 393 was 16 µM (inactive); in the experiment with K562 it was 10.4 µM (inactive); in the experiment with SK-MEL-2, 14.4 µM (inactive); in the experiment on SF-295 it was 16.7 µM (inactive); with OVCAR-8, 13.8 µM (inactive); with SNB-19 it was 17.3 µM (inactive). Besides, the GI50 in the experiment with UO-31 is 24.5 µM (inactive); in the experiment on HCT-15 it was 16.3 µM; in the experiment on LOX IMVI, 16.7 µM (inactive); in the experiment with U-251 it was 13.5 µM (inactive); in the experiment with OVCAR-3, 13.5 µM (inactive); with SK-MEL-28, 20.3 µM (inactive). Also, the GI50 in the experiment with SR was 13.2 µM (inactive); with A549 it was 12.5 µM (inactive); with MOLT-4 it was 15.5 µM (inactive); in the experiment on SF-268, 18.1 µM (inactive); with IGROV-1, 14.6 µM (inactive); with HL-60, 17 µM (inactive).

On to `COc1cc(/C=C/c2ccnc3ccccc23)cc(OC)c1OC`, for which the GI50 in the experiment on CCRF-CEM is 2.09 µM (inactive); with RXF 393, 1.63 µM (inactive); with SK-MEL-2, 3.78 µM (inactive); with SF-295, 8.47 µM (inactive); in the experiment with SNB-19 it was 10.4 µM (inactive); in the experiment on UO-31, 0.132 µM (active). In addition, the GI50 with UACC-257 is 5.27 µM (inactive); with HCT-15, 2.56 µM; with LOX IMVI, 4.63 µM (inactive); in the experiment with U-251, 4.99 µM (inactive); in the experiment with OVCAR-3, 3.3 µM (inactive); in the experiment with SK-MEL-28 it was 3.08 µM (inactive). The GI50 is 1.35 µM (inactive) in the experiment with SR; 4.52 µM (inactive) in the experiment with A549; 2.92 µM (inactive) in the experiment on MOLT-4; 3.39 µM (inactive) with SF-268; 3.66 µM (inactive) in the experiment with IGROV-1; 0.416 µM (active) in the experiment with HL-60.

For `O=C(Cc1ccc(Cl)cc1)Nc1ccc2oc(-c3ccccc3)nc2c1`, the GI50 in the experiment with CCRF-CEM was > 100 µM (inactive); with RXF 393, > 100 µM (inactive); with K562 it was > 100 µM (inactive); in the experiment on SK-MEL-2, 89.1 µM (inactive); in the experiment with SF-295, > 100 µM (inactive); with OVCAR-8 it was 32.7 µM (inactive). For the same compound, the GI50 in the experiment on SNB-19 is 38.9 µM (inactive); in the experiment with UACC-257 it was > 100 µM (inactive); in the experiment on HCT-15, above 100 µM; in the experiment with LOX IMVI it was > 100 µM (inactive); in the experiment on U-251, 56.1 µM (inactive); with OVCAR-3, > 100 µM (inactive). Moreover, the GI50 in the experiment with SK-MEL-28 was > 100 µM (inactive); in the experiment on SR, > 100 µM (inactive); in the experiment on A549 it was > 100 µM (inactive); with MOLT-4, > 100 µM (inactive); with SF-268, 74 µM (inactive); in the experiment with IGROV-1, > 100 µM (inactive). In addition, the GI50 in the experiment on HL-60 was > 100 µM (inactive).

Consider `Nc1nc(Cl)c(CO)c(NCC2(CO)CCC2)n1`, for which the GI50 in the experiment on CCRF-CEM is > 100 µM (inactive); in the experiment with RXF 393 it was > 100 µM (inactive); in the experiment with K562 it was > 100 µM (inactive); in the experiment with SF-295 it was > 100 µM (inactive); in the experiment with OVCAR-8, > 100 µM (inactive); in the experiment with SNB-19, 94.2 µM (inactive). Moreover, the GI50 was > 100 µM (inactive) in the experiment on UO-31; > 100 µM (inactive) with UACC-257; above 100 µM in the experiment on HCT-15; > 100 µM (inactive) in the experiment on LOX IMVI; > 100 µM (inactive) in the experiment on U-251; > 100 µM (inactive) with OVCAR-3. The GI50 in the experiment on SK-MEL-28, with SR, in the experiment on A549, in the experiment with MOLT-4, in the experiment with SF-268 and with IGROV-1 was > 100 µM (inactive) each time. Moreover, in the experiment with HL-60, the GI50 is > 100 µM (inactive).

For `Cc1cc(OCC(O)CO)ccc1-c1ccccc1` (stereo not given), the GI50 was 35 µM (inactive) in the experiment with CCRF-CEM; 21.2 µM (inactive) with RXF 393; > 100 µM (inactive) with K562; > 100 µM (inactive) in the experiment with SK-MEL-2; > 100 µM (inactive) in the experiment on OVCAR-8; > 100 µM (inactive) in the experiment on SNB-19. For the same compound, the GI50 with UO-31 was > 100 µM (inactive); in the experiment on UACC-257 it was 52.5 µM (inactive); in the experiment on HCT-15, 37.2 µM; with U-251, 54.3 µM (inactive); in the experiment with OVCAR-3 it was > 100 µM (inactive); in the experiment on SK-MEL-28 it was > 100 µM (inactive). The GI50 was > 100 µM (inactive) with SR; > 100 µM (inactive) in the experiment on A549; > 100 µM (inactive) in the experiment with MOLT-4; > 100 µM (inactive) with SF-268; > 100 µM (inactive) in the experiment on IGROV-1; 61.1 µM (inactive) in the experiment on HL-60.

For the compound `C=CCO[C@]1(CC=C)C(=O)C(=O)OC1C1COC(C)(C)O1` (stereo not given in full), the GI50 with CCRF-CEM is 29.4 µM (inactive); with RXF 393, 19.8 µM (inactive); with K562 it was 27.4 µM (inactive); in the experiment with SF-295, > 100 µM (inactive); in the experiment on OVCAR-8, 29.2 µM (inactive); in the experiment on SNB-19 it was > 100 µM (inactive). For the same compound, the GI50 in the experiment on UO-31 is 84.5 µM (inactive); in the experiment on UACC-257, 30 µM (inactive); with HCT-15, 21.1 µM; with LOX IMVI it was 16.9 µM (inactive); in the experiment on U-251 it was 72.3 µM (inactive); with OVCAR-3, 45.7 µM (inactive). In addition, the GI50 was > 10 µM (inactive) with SK-MEL-28; 22.9 µM (inactive) in the experiment on SR; > 100 µM (inactive) in the experiment on A549; 31.8 µM (inactive) in the experiment on MOLT-4; 26.6 µM (inactive) with SF-268; > 100 µM (inactive) in the experiment with IGROV-1. Also, the GI50 in the experiment on HL-60 was > 10 µM (inactive).

As to `O=C(C[C@@H]1CCCN2CCCC[C@H]12)N1c2ccccc2Sc2ccc(Cl)cc21`, the GI50 in the experiment on CCRF-CEM was 15 µM (inactive); in the experiment with RXF 393 it was 13.6 µM (inactive); in the experiment on K562, 13.8 µM (inactive); with SF-295, 19.5 µM (inactive); in the experiment with OVCAR-8, 19.3 µM (inactive); in the experiment with SNB-19, 16.1 µM (inactive). For the same compound, the GI50 in the experiment on UO-31 was 12.9 µM (inactive); in the experiment on UACC-257, 11.6 µM (inactive); in the experiment on HCT-15 it was 15.7 µM; in the experiment on LOX IMVI, 13.7 µM (inactive); in the experiment on U-251 it was 12.1 µM (inactive); in the experiment with OVCAR-3, 16.2 µM (inactive). The GI50 was 13.2 µM (inactive) in the experiment on SK-MEL-28; 19.3 µM (inactive) in the experiment on SR; 16.6 µM (inactive) in the experiment on A549; 11.8 µM (inactive) in the experiment with MOLT-4; 19.2 µM (inactive) in the experiment with SF-268; 12.6 µM (inactive) with IGROV-1. Also, the GI50 with HL-60 is 14.5 µM (inactive).

For `CSc1nncc(-c2cc3c(c(SC)n2)CCCC3)n1`, the GI50 is > 100 µM (inactive) in the experiment with CCRF-CEM; 47.3 µM (inactive) in the experiment on RXF 393; > 100 µM (inactive) in the experiment on K562; > 100 µM (inactive) with SK-MEL-2; > 100 µM (inactive) with SF-295; 54.8 µM (inactive) in the experiment on OVCAR-8. Further, the GI50 in the experiment with SNB-19 was > 100 µM (inactive); in the experiment with UO-31, > 100 µM (inactive); in the experiment on UACC-257, > 100 µM (inactive); with HCT-15, above 100 µM; in the experiment with U-251, > 100 µM (inactive); with OVCAR-3, > 100 µM (inactive). In addition, the GI50 is > 100 µM (inactive) with SK-MEL-28; > 100 µM (inactive) with SR; > 100 µM (inactive) with A549; > 100 µM (inactive) in the experiment on MOLT-4; 26.9 µM (inactive) with SF-268; > 100 µM (inactive) with HL-60.

In the case of `[O-][s+]1c2c(Cc3ccccc3)c(Cc3ccccc3)c1CCc1cccc(c1)CC2`, the GI50 is 19.6 µM (inactive) in the experiment on CCRF-CEM; 3.86 µM (inactive) in the experiment with RXF 393; 11.2 µM (inactive) in the experiment on K562; 17 µM (inactive) in the experiment with SK-MEL-2; 13.2 µM (inactive) in the experiment with SF-295; 13.3 µM (inactive) in the experiment with OVCAR-8. Also, the GI50 was 14.6 µM (inactive) in the experiment on SNB-19; 12.9 µM (inactive) in the experiment on UO-31; 14.1 µM (inactive) in the experiment on UACC-257; 12.9 µM in the experiment with HCT-15; 14 µM (inactive) in the experiment on LOX IMVI; 13.9 µM (inactive) in the experiment on U-251. Moreover, the GI50 is 11.1 µM (inactive) in the experiment on OVCAR-3; 20.7 µM (inactive) with SK-MEL-28; 17.2 µM (inactive) in the experiment on SR; 13.9 µM (inactive) in the experiment on A549; 14 µM (inactive) with MOLT-4; 15.6 µM (inactive) in the experiment on SF-268. Besides, in the experiment on HL-60, the GI50 is 16.9 µM (inactive).

`Nc1nc(N)c2ncn(CCOC(c3ccccc3)P(=O)(O)O)c2n1` (stereo not given): the GI50 in the experiment on CCRF-CEM, in the experiment with RXF 393, with SK-MEL-2, in the experiment with SF-295, with OVCAR-8 and in the experiment on SNB-19 was > 100 µM (inactive) in each case. Also, the GI50 in the experiment on UO-31 is > 100 µM (inactive); with UACC-257, > 100 µM (inactive); with HCT-15, above 100 µM; in the experiment on LOX IMVI, > 100 µM (inactive); in the experiment on U-251, > 100 µM (inactive); in the experiment with OVCAR-3, > 100 µM (inactive). Further, the GI50 with SK-MEL-28, with SR, in the experiment with A549, in the experiment with MOLT-4, in the experiment with SF-268 and with IGROV-1 was > 100 µM (inactive) each time. Besides, the GI50 in the experiment on HL-60 is > 100 µM (inactive).

Consider `COc1c2ccoc2c(OC)c2oc(=O)ccc12` [ISOPIMPINELLIN], for which the GI50 was > 100 µM (inactive) in the experiment on CCRF-CEM; 45.8 µM (inactive) in the experiment with RXF 393; > 100 µM (inactive) in the experiment on K562; > 100 µM (inactive) in the experiment with SF-295; > 100 µM (inactive) with OVCAR-8; > 100 µM (inactive) in the experiment with SNB-19. Moreover, the GI50 with UO-31 was 95.7 µM (inactive); in the experiment on UACC-257 it was > 100 µM (inactive); in the experiment with HCT-15, above 100 µM; with LOX IMVI, > 100 µM (inactive); with U-251 it was > 100 µM (inactive); in the experiment on OVCAR-3 it was > 100 µM (inactive). For the same compound, the GI50 with SK-MEL-28, with SR, in the experiment with A549, with MOLT-4, with SF-268 and in the experiment with IGROV-1 was > 100 µM (inactive) each time. Also, the GI50 with HL-60 is > 100 µM (inactive).

These data come from ChEMBL document CHEMBL1201862, “PubChem BioAssay data set” (2004).
